For one molecule, EC50 results are on record in patent publication US20080119412A1, “Polypeptides for Modulating Binding of Trp Channel Proteins and Trp- Associated Proteins” (NoNO Inc., priority 2003, published 2008).

Holding throughout (experiment): G3 assay titration, GST-PDZ fusion / biotinylated peptide
Holding throughout (type): binding

In one experiment the target is T1, Syntrophin 1 alpha d1 (Homo sapiens, UniProt Q13424).
T1 construct: made in house; host or cells: E. coli (DH5alpha, BL21 or JM109)
T1 sequence (Q13424 84-177): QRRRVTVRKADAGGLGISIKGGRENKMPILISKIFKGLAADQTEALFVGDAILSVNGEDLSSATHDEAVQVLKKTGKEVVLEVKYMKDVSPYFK

The target in a further experiment is T2, TIP1 d1 (Homo sapiens, UniProt O14907).
T2 construct: made in house; host or cells: E. coli (DH5alpha, BL21 or JM109)
T2 sequence (O14907 14-116): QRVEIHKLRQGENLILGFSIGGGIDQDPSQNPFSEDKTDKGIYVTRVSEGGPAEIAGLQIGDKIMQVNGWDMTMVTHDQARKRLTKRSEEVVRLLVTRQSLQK
How it is done: (§1) The G3 assay is identical to the G0 assay with the following exceptions. The peptides are typically present at 0.1 μM rather than 20 μM. The peptides are also pre-incubated with the HRP-streptavidin prior to adding to the assay plate. In the G0 assay, free peptide is incubated with the PDZ proteins prior to the addition of the HRP-streptavidin. Thus, for the G0 assay one can lose signal if the bound peptide dissociates from the PDZ protein prior to the addition of the HRP-streptavidin. In the G3 modified assay the HRP-streptavidin/peptide complex is added to the plate in one step, thus increasing the likelihood that all the bound peptide will be bound to HRP-streptavidin. The G3 modified assay increases the chance of observing weak interactions.
(§2) This example describes assays to identify binding between TRPM7 and PDZ domains. GST-PDZ fusions are produced that each contain an entire PDZ domain (or multiple PDZ domains), the collection encompassing approximately 90% of all PDZ domains identified in the human genome. (See Table 5 and Section V (PDZ Proteins and PL Protein Interactions Disclosure). Biotinylated peptide corresponding to 11 residues of Tat coupled to the C-terminal 9 amino acids of TRPM7 ([…]; SEQ ID NO:258) is synthesized and purified by HPLC.
(§3) • Nunc MaxiSorp 96 well Immuno-plate, Nunc • PBS pH 7.4 (phosphate buffered saline, 8 g NaCl, 0.29 g KCl, 1.44 g Na2HPO4, 0.24 g KH2PO4, add H2O to 1 liter and pH 7.4; 0.2 μm filter) • Assay Buffer: 2% BSA in PBS (20 g of bovine serum albumin per liter PBS, fraction V, ICN Biomedicals, cat#IC15142983 • Goat anti-GST polyclonal Ab, stock 5 mg/ml, stored at 4° C., Amersham Pharmacia cat#27-4577-01 • Dilute 1:1000 in PBS, final concentration 5 μg/ml. • HRP-Streptavidin, 2.5 mg/2 ml stock stored at 4° C., Zymed cat#43-4323, dilute 1:2000 into Assay buffer, final concentration of […] • Wash Buffer, PBS • Biotinylated peptides (HPLC purified, stock solution stored in −20° C. freezer) • GST-PRISM proteins (stock stored at −80° C., after 1st thaw store in −10° C. freezer) • TMB (3,3′,5,5′, teramethylbensidine), tablets, Sigma cat.#T5525 • Per plate, dissolve 1 tablet in 1 ml DMSO, add 9 ml Citrate/Phosphate buffer pH 5.4 and 2 μL H2O2 • 0.1 M H2SO4, Sigma cat.#S1526 • 12-w multichannel pipettor & tips • 50 ml reagent reservoirs, Costar#4870 • 50, 15 ml polypropylene conical tubes • Costar Transtar 96 Costar #7605 • Transtar 96 Cartridge Costar #7610 • Molecular Devices microplate reader (450 & 650 nm filters) with SoftMax Pro software *When using reagents stored at or 4° C. or −20° C., remove & keep on ice
(§4) • 1. Coat plate with 100 μl of 5 μg/ml anti-GST, overnight at 4° C. • 2. Dump contents of plate & out tap dry on paper towels • 3. Block with 200 μl Assay Buffer for 2 hrs at room temperature • 4. Prepare proteins at 5 μg/ml in Assay Buffer • 5. Wash 3× with cold PBS (4° C.), avoiding letting the plates dry out • 6. Add proteins at 50 μl per well, incubate 1 to 2 hrs at 4° C. • 7. Prepare peptides to desired concentration in Assay Buffer • 8. Wash 3× with cold PBS (4° C.), avoiding letting the plates dry out • 9. Add HRP-Streptavidin/peptide complex [prepared by incubating for 20 minutes at room temperature HRP-Streptavidin (1:2000) with the desired biotin-peptide concentration for 20 minutes at room temperature] at 50 μl per well on ice • 10. Place at room temperature for exactly 30 minutes • 11. Promptly wash 5× with PBS at room temperature • 12. Add 100 μl/well TMB substrate (write time on plate) • 13. Incubate in dark at room temperature for a maximum of 30 minutes • 14. Read plate at 25 minutes (650 nm), optional • 15. Stop reaction with 100 μl of 0.18 M H2SO4, 30 minutes after adding TMB • Take last reading at 450 nm soon after stopping reaction
(§5) The G3 assay was performed on a subset of the PDZ domains as in Example II except that the concentration of peptide was 0.002 μM, […], 0.1 μM, 0.2 μM, 1 μM, and 2 μM. Data was fitted to the equation: […]

In the next experiment the target is T3, KIAA1284 d1 (Homo sapiens, UniProt Q9ULD6).
T3 construct: made in house; host or cells: E. coli (DH5alpha, BL21 or JM109)
T3 sequence (Q9ULD6 159-271): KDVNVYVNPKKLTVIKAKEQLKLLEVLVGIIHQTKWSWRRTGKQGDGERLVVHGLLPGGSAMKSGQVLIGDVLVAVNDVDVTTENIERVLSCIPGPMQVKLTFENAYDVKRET
How it is done: as §1, §2, §3, §4, §5

Another experiment deals with T4, MUPP1 d3 (Homo sapiens, UniProt O75970).
T4 construct: made in house; host or cells: E. coli (DH5alpha, BL21 or JM109)
T4 sequence (O75970 with tags, fused parts or gaps): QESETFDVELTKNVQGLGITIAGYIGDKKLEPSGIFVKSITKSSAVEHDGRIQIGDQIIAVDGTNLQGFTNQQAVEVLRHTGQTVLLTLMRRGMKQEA
How it is done: as §1, §2, §3, §4, §5

The next experiment has as its target T5, SITAC-18 d1 (Homo sapiens, UniProt Q9H190).
T5 construct: made in house; host or cells: E. coli (DH5alpha, BL21 or JM109)
T5 sequence (Q9H190 104-195): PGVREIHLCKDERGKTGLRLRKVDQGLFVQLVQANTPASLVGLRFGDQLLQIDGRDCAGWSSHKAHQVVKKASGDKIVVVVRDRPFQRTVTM
Here is the method: as §1, §2, §3, §4, §5

Another experiment deals with T6, Mint1 d2 (Homo sapiens, UniProt Q02410).
T6 construct: made in house; host or cells: E. coli (DH5alpha, BL21 or JM109)
T6 sequence (Q02410 with tags, fused parts or gaps): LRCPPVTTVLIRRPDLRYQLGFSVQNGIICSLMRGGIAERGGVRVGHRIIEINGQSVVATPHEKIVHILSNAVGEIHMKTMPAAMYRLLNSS
How it is done:
as §1, §2, §3, §4, §5

pEC50: −log10 of the molar value. Residues, ends and D or L forms follow the SMILES beside them. *: point of attachment. Biotin = O=C1N[C@H]2[C@H](CS[C@H]2CCCCC(=O)*)N1

`CSCC[C@H](NC(=O)[C@H](CC(C)C)NC(=O)[C@H](CCCNC(=N)N)NC(=O)[C@@H](NC(=O)[C@H](CO)NC(=O)[C@H](CC(N)=O)NC(=O)[C@@H](NC(=O)[C@H](CO)NC(=O)[C@H](CCCNC(=N)N)NC(=O)[C@H](CCCNC(=N)N)NC(=O)[C@H](CCCNC(=N)N)NC(=O)[C@H](CCC(N)=O)NC(=O)[C@H](CCCNC(=N)N)NC(=O)[C@H](CCCNC(=N)N)NC(=O)[C@H](CCCCN)NC(=O)[C@H](CCCCN)NC(=O)[C@H](CCCNC(=N)N)NC(=O)CNC(=O)[C@H](Cc1ccc(O)cc1)NC(=O)CCCC[C@@H]1SC[C@@H]2NC(=O)N[C@@H]21)[C@@H](C)O)C(C)C)C(=O)N[C@@H](CC(C)C)C(=O)O` [Tat-TRPM7 peptide] (Biotin-YGRKKRRQRRRSTNSVRLML-OH): the negative-log EC50 (pEC50) – broadly, the EC50 on a negative log10 scale, so that one unit is a factor of ten – on Syntrophin 1 alpha d1 was 6.80; at TIP1 d1, greater than 6.00; on KIAA1284 d1, less than 5.70; at MUPP1 d3, 6.54; at SITAC-18 d1 it was greater than 6.00; on Mint1 d2 it was greater than 5.70.
